# Experimental data reported in ChEMBL document CHEMBL3769337, “Inspired by magnolol: design of NSAID-based compounds with excellent anti-inflammatory effects” (2015).
# Active and inactive are the calls of the source. No cut-off for these calls is given here.
# Assays:
# Mus musculus [1] = assay: Antiinflammatory activity in TPA induced BALB/c mouse ear edema model assessed as decrease in weight of ear punches administered topically for 6 mins prior to TPA challenge measured after 6 hrs relative to control; assay type: functional; set-up: concentration or dose not given beside the values; scale not given: the % may be the effect or the level left
# Mus musculus [2] = assay: Antiinflammatory activity in TPA induced BALB/c mouse ear edema model assessed as decrease in weight of ear punches at 0.75 uM administered topically for 6 mins prior to TPA challenge measured after 6 hrs relative to control; assay type: functional; set-up: scale not given: the % may be the effect or the level left
# Mus musculus [3] = assay: (§1) Antiinflammatory activity in TPA induced BALB/c mouse ear edema model assessed as decrease in inflammatory cell infiltration level administered topically for 6 mins prior to TPA challenge measured after 6 hrs by Hematoxylin and Eosin staining based microscopy; assay type: functional, organism-based
# Mus musculus [4] = assay: Antiinflammatory activity in TPA induced BALB/c mouse ear edema model assessed as morphological alterations administered topically for 6 mins prior to TPA challenge measured after 6 hrs by Hematoxylin and Eosin staining based microscopy; assay type: functional, organism-based
# Mus musculus [5] = assay: Decrease in TPA induced IL-1beta levels in TPA induced BALB/c mouse ear edema model administered topically for 6 mins prior to TPA challenge measured after 6 hrs by immunohistochemical analysis; assay type: functional, organism-based
# Mus musculus [6] = assay: Decrease in TPA induced IL6 levels in TPA induced BALB/c mouse ear edema model administered topically for 6 mins prior to TPA challenge measured after 6 hrs by immunohistochemical analysis; assay type: functional, organism-based
# Mus musculus [7] = assay: Decrease in TPA induced TNF-alpha levels in TPA induced BALB/c mouse ear edema model administered topically for 6 mins prior to TPA challenge measured after 6 hrs by immunohistochemical analysis; assay type: functional, organism-based
# Mus musculus [8] = assay: In vivo inhibition of TPA induced p65 translocation form cytoplasm to nucleus in TPA induced BALB/c mouse ear edema model administered topically for 6 mins prior to TPA challenge measured after 6 hrs by immunohistochemical analysis; assay type: functional, organism-based
# Mus musculus [9] = assay: Decrease in nuclear level of phosphorylated p65 in TPA induced BALB/c mouse ear edema model administered topically for 6 mins prior to TPA challenge measured after 6 hrs by immunohistochemical analysis; assay type: functional, organism-based
# Mus musculus [10] = assay: In vivo inhibition of TPA induced NF-kappa-B transcriptional activity in TPA induced BALB/c mouse ear edema model administered topically for 6 mins prior to TPA challenge measured after 6 hrs by immunohistochemical analysis; assay type: functional, organism-based
# Mus musculus [11] = assay: In vivo inhibition of TPA induced I-kappa-B-alpha phosphorylation in TPA induced BALB/c mouse ear edema model administered topically for 6 mins prior to TPA challenge measured after 6 hrs by immunohistochemical analysis; assay type: functional, organism-based
# Mus musculus [12] = assay: In vivo inhibition of TPA induced IKK activity in TPA induced BALB/c mouse ear edema model administered topically for 6 mins prior to TPA challenge measured after 6 hrs by immunohistochemical analysis; assay type: functional, organism-based
# Mus musculus [13] = assay: Antiinflammatory activity in TPA induced BALB/c mouse ear edema model assessed as decrease in weight of ear punches compound co-treated with diclofenac at 1:1 compound to diclofenac ratio administered topically for 6 mins prior to TPA challenge measured after 6 hrs relative to control; assay type: functional; set-up: scale not given: the % may be the effect or the level left
# Mus musculus [14] = assay: Antiinflammatory activity in TPA induced BALB/c mouse ear edema model assessed as decrease in weight of ear punches compound co-treated with diflunisal at 1:1 compound to diflunisal ratio administered topically for 6 mins prior to TPA challenge measured after 6 hrs relative to control; assay type: functional; set-up: scale not given: the % may be the effect or the level left
# Mus musculus [15] = assay: Antiinflammatory activity in TPA induced BALB/c mouse ear edema model assessed as decrease in weight of ear punches compound co-treated with flufenamic acid at 1:1 compound to flufenamic acid ratio administered topically for 6 mins prior to TPA challenge measured after 6 hrs relative to control; assay type: functional; set-up: scale not given: the % may be the effect or the level left
# Mus musculus [16] = assay: Antiinflammatory activity in TPA induced BALB/c mouse ear edema model assessed as decrease in weight of ear punches compound co-treated with naproxen at 1:1 compound to naproxen ratio administered topically for 6 mins prior to TPA challenge measured after 6 hrs relative to control; assay type: functional; set-up: scale not given: the % may be the effect or the level left
# Mus musculus [17] = assay: Antiinflammatory activity in TPA induced BALB/c mouse ear edema model assessed as decrease in weight of ear punches compound co-treated with ketoprofen at 1:1 compound to ketoprofen ratio administered topically for 6 mins prior to TPA challenge measured after 6 hrs relative to control; assay type: functional; set-up: scale not given: the % may be the effect or the level left
# Mus musculus [18] = assay: Antiinflammatory activity in TPA induced BALB/c mouse ear edema model assessed as decrease in weight of ear punches compound co-treated with flufenamic acid at 1:2 compound to flufenamic acid ratio administered topically for 6 mins prior to TPA challenge measured after 6 hrs relative to control; assay type: functional; set-up: scale not given: the % may be the effect or the level left
# Mus musculus [19] = assay: Antiinflammatory activity in TPA induced BALB/c mouse ear edema model assessed as decrease in weight of ear punches compound co-treated with naproxen at 1:2 compound to naproxen ratio administered topically for 6 mins prior to TPA challenge measured after 6 hrs relative to control; assay type: functional; set-up: scale not given: the % may be the effect or the level left
# Mus musculus [20] = assay: Antiinflammatory activity in TPA induced BALB/c mouse ear edema model assessed as decrease in weight of ear punches compound co-treated with ketoprofen at 1:2 compound to ketoprofen ratio administered topically for 6 mins prior to TPA challenge measured after 6 hrs relative to control; assay type: functional; set-up: scale not given: the % may be the effect or the level left
# Mus musculus [21] = assay: as §1, with “level compound cotreated with ketoprofen at 1:1 compound to ketoprofen ratio” for “level”; assay type: functional, organism-based
# Mus musculus [22] = assay: Antiinflammatory activity in TPA induced BALB/c mouse ear edema model assessed as decrease in weight of ear punches at 3 uM administered topically for 6 mins prior to TPA challenge measured after 6 hrs relative to control; assay type: functional; set-up: scale not given: the % may be the effect or the level left
# Mus musculus [23] = assay: Antiinflammatory activity in TPA induced BALB/c mouse ear edema model assessed as decrease in weight of ear punches at 1.5 uM administered topically for 6 mins prior to TPA challenge measured after 6 hrs relative to control; assay type: functional; set-up: scale not given: the % may be the effect or the level left
# Mus musculus [24] = assay: Antiinflammatory activity in TPA induced BALB/c mouse ear edema model assessed as decrease in weight of ear punches at 0.325 uM administered topically for 6 mins prior to TPA challenge measured after 6 hrs relative to control; assay type: functional; set-up: scale not given: the % may be the effect or the level left
# Mus musculus [25] = assay: Antiinflammatory activity in TPA induced BALB/c mouse ear edema model assessed as decrease in weight of ear punches at 0.1 uM administered topically for 6 mins prior to TPA challenge measured after 6 hrs relative to control; assay type: functional; set-up: scale not given: the % may be the effect or the level left
structure (smiles),measurement,setting,value
COc1ccc2cc([C@H](C)C(=O)O)ccc2c1 [NAPROXEN],Activity,Mus musculus [1],46%
C=CCc1ccc(O)c(-c2cc(CC=C)ccc2OC(=O)[C@@H](C)c2ccc3cc(OC)ccc3c2)c1,Activity,Mus musculus [2],<=90%
C=CCc1ccc(OC(=O)C(C)c2cccc(C(=O)c3ccccc3)c2)c(-c2cc(CC=C)ccc2OC(=O)C(C)c2cccc(C(=O)c3ccccc3)c2)c1 (stereo unspecified),Activity,Mus musculus [2],<=90%
C=CCc1ccc(OC(=O)c2ccccc2Nc2cccc(C(F)(F)F)c2)c(-c2cc(CC=C)ccc2OC(=O)c2ccccc2Nc2cccc(C(F)(F)F)c2)c1,Activity,Mus musculus [2],<=90%
C=CCc1ccc(O)c(-c2cc(CC=C)ccc2OC(=O)C(C)c2cccc(C(=O)c3ccccc3)c2)c1 (stereo unspecified),Activity,Mus musculus [3],Active
same,Activity,Mus musculus [4],Active
same,Activity,Mus musculus [5],Active
same,Activity,Mus musculus [6],Active
same,Activity,Mus musculus [7],Active
same,inhibition,Mus musculus [8],Active
same,Activity,Mus musculus [9],Active
same,inhibition,Mus musculus [10],Active
same,inhibition,Mus musculus [11],Active
same,inhibition,Mus musculus [12],Active
same,Activity,Mus musculus [2],<=90%
C=CCc1ccc(O)c(-c2cc(CC=C)ccc2OC(=O)Cc2ccccc2Nc2c(Cl)cccc2Cl)c1,Activity,Mus musculus [2],<=90%
C=CCc1ccc(OC(=O)[C@@H](C)c2ccc3cc(OC)ccc3c2)c(-c2cc(CC=C)ccc2OC(=O)[C@@H](C)c2ccc3cc(OC)ccc3c2)c1,Activity,Mus musculus [2],<=90%
O=C(O)c1ccccc1Nc1cccc(C(F)(F)F)c1 [FLUFENAMIC ACID],Activity,Mus musculus [1],75.8%
C=CCc1ccc(O)c(-c2cc(CC=C)ccc2O)c1 [MAGNOLOL],Activity,Mus musculus [1],Dose-dependent effect
same,Activity,Mus musculus [1]; record 2,52.2%
same,Activity,Mus musculus [13],87.9%
same,Activity,Mus musculus [14],94.9%
same,Activity,Mus musculus [15],70.4%
same,Activity,Mus musculus [16],40.2%
same,Activity,Mus musculus [17],16.6%
same,Activity,Mus musculus [18],54.2%
same,Activity,Mus musculus [19],92.8%
same,Activity,Mus musculus [20],72.7%
same,Activity,Mus musculus [3],Active
same,Activity,Mus musculus [21],Active
same,Activity,Mus musculus [22],96.7%
same,Activity,Mus musculus [23],91.7%
same,Activity,Mus musculus [2],58.3%
same,Activity,Mus musculus [24],16.7%
same,Activity,Mus musculus [25],8.3%
C=CCc1ccc(OC(=O)c2ccccc2O)c(-c2cc(CC=C)ccc2OC(=O)c2ccccc2O)c1,Activity,Mus musculus [2],inactive
C=CCc1ccc(OC(=O)c2cc(-c3ccc(F)cc3F)ccc2O)c(-c2cc(CC=C)ccc2OC(=O)c2cc(-c3ccc(F)cc3F)ccc2O)c1,Activity,Mus musculus [2],inactive
C=CCc1ccc(OC(=O)CC2(CC)OCCc3c2[nH]c2c(CC)cccc32)c(-c2cc(CC=C)ccc2OC(=O)CC2(CC)OCCc3c2[nH]c2c(CC)cccc32)c1 (stereo unspecified),Activity,Mus musculus [2],inactive
C=CCc1ccc(OC(=O)c2ccccc2Nc2cccc(C)c2C)c(-c2cc(CC=C)ccc2OC(=O)c2ccccc2Nc2cccc(C)c2C)c1,Activity,Mus musculus [2],inactive
C=CCc1ccc(OC(=O)Cc2ccccc2Nc2c(Cl)cccc2Cl)c(-c2cc(CC=C)ccc2OC(=O)Cc2ccccc2Nc2c(Cl)cccc2Cl)c1,Activity,Mus musculus [2],inactive
O=C(O)c1cc(-c2ccc(F)cc2F)ccc1O [DIFLUNISAL],Activity,Mus musculus [1],80.5%
C=CCc1ccc(O)c(-c2cc(CC=C)ccc2OC(=O)c2cc(-c3ccc(F)cc3F)ccc2O)c1,Activity,Mus musculus [2],<=90%
CC(C(=O)O)c1cccc(C(=O)c2ccccc2)c1 (stereo unspecified) [KETOPROFEN],Activity,Mus musculus [1],10.9%
same,Activity,Mus musculus [3],Active
C=CCc1ccc(O)c(-c2cc(CC=C)ccc2OC(=O)c2ccccc2Nc2cccc(C(F)(F)F)c2)c1,Activity,Mus musculus [2],<=90%
O=C(O)Cc1ccccc1Nc1c(Cl)cccc1Cl [DICLOFENAC],Activity,Mus musculus [1],78.3%
